Reference: patent publication US7125958B1, “Malaria polypeptides” (priority 1997, dated 2006)

Columns and labels:
[1] = tested on: DBL-1-GST fusion protein (FCR3S1.2-PfEMP1); test: Heparin blocking assay: inhibition of DBL-1-GST binding to heparin-sepharose by GAGs; parameters: species or system Plasmodium falciparum; conditions: GAG titrated from 10 to 0.5 mg/ml, SDS-PAGE
Description: The potential binding of the fusion proteins to heparin was studied by mixing either DBL-1-GST, ATS-GST fusion protein or GST alone (20 μl, 150 μg/ml in PBS) with 20 μl of 50% heparin-sepharose (Pharmacia) and incubating for 5 min at room temperature in the absence of serum; binding to uncoupled sepharose was used as control. The heparin-sepharose and protein mixture was washed 3 times in large volumes of PBST buffer (PBS plus 0.05% Tween-20) before extracting bound proteins in loading-buffer for 10% SDS-PAGE. Inhibition of DBL-1-GST fission protein binding to heparin with heparin, heparan sulfate or chondroitin sulfate (Lövens Kemiske Fabrik, Denmark, more than 90% pure) was also tested. Twenty μl of 150 μg/ml DBL-1-GST fusion protein was mixed separately for 5 minutes with an equal volume of heparin, heparan sulfate, or chondroitin sulfate, titrated from 10 to 0.5 mg/ml, before the addition of heparin sepharose. The inhibitory activities were checked by SDS-PAGE.

[2] = tested on: FCR3S1 rosettes; test: Rosette disruption assay, laboratory strain FCR3S1; type: cell-based, Plasmodium falciparum; conditions: for sensitivity of FCR3S1 rosettes to the compound: 30 minutes at 37° C.
Excerpt: (§1) Parasites and rosetting—Two distinct highly resetting P. Falciparum laboratory stains were used: FCR3S1 (previously named R^+PA1) and TM 284 (isolated in Thailand, 1990). Parasites were cultivated according to standard procedures (Udomsangpetch et al. 1989). Field isolates were obtained from patients attending the Albert Schweitzer Hospital, Lambaréné, Gabon between April and June 1996. […] A venous or capillary blood sample was taken after patients or parents informed consent. Blood was washed three times with RPMI and cultivated according to standard procedures (Udomsangpetch et al. 1989). Assessment for parasite growth and resetting was made every 6–8 hours using a Leitz UV-light microscope. Briefly, an aliquot of parasite culture was mixed with a small amount of acridine orange and the sample was analyzed. Assays were performed on rosetting isolates when the majority of parasites in culture had reached the trophozoite stage. The resetting rate was expressed as the number of infected erythrocytes in rosettes relative to the total number of late stage infected erythrocytes. Three hundred infected cells were counted. Parasitemia was calculated as the number of infected erythrocytes relative to the number of uninfected erythrocytes.
(§2) For laboratory stains, parasite cultures with rosetting rates of 50–70% and parasitemia 5–8% were used Aliquots (12.5–25 μl) of parasite cultures were mixed with equal amounts of sulfated glycoconjugate compound in RPMI in a 96-well microtiter plate, at final concentrations indicated After incubation for 30 minutes at 37° C. assessment for resetting was made as described above. The resetting rate was compared to that of culture mixed with RPMI.

[3] = tested on: TM 284 rosettes; test: Rosette disruption assay, laboratory strain TM 284; type: cell-based, Plasmodium falciparum; conditions: for sensitivity of TM 284 rosettes to the compound: relative to FCR3S1
Excerpt: as §1, §2

[4] = tested on: rosettes of wild isolates; test: Rosette disruption assay, wild (patient) isolates; type: cell-based, Plasmodium falciparum; conditions: thirtytwo patient isolates
Excerpt: as §1, §2

[5] = tested on: uninfected RBC rosette binding capacity; type: cell-based, Plasmodium falciparum; conditions: compared to non-treated RBC
[6] = tested on: FCR3S1 rosetting; type: cell-based, Plasmodium falciparum; conditions: compared to mock treated control cultures
[7] = tested on: TM 284 rosetting; type: cell-based, Plasmodium falciparum; conditions: for change in rosetting after treatment of whole cultures, TM 284: compared to mock treated control cultures
[8] = tested on: FCR3S1.2 rosettes; test: Rosette disruption assay, FCR3S1.2; type: cell-based, Plasmodium falciparum; conditions: incubated with GAGs for 1 h at 37° C., compared to control culture
Description: FIG. 5. Effect of glycosaminoglycans (GAGS) on P. falciparum resetting. […] FCR3S1.2 cultures were incubated with GAGs for 1 h at 37° C. and compared to control culture. Results are the means and standard error of three separate experiments.
The assay was performed essentially as described (Carlson, J. and M. Wahlgren, 1992. Plasmodium falciparum erythrocytes resetting is mediated by promiscuous lectin-like interactions. J. Exp. Med., 176, 1311–1317). The recombinant fission proteins ([…] in PBS of DBL-1-GST or ATS-GST) were added to 25 μl aliquots of a ≈80% rosetting culture of FCR3S1.2 in a micro-titre plate. The mixtures were incubated for 30 min. at 37° C. after which the rosetting rate was scored and compared to mock treated controls after staining with acridine orange.

[9] = tested on: DBL-1-GST fusion protein (FCR3S1.2-PfEMP1); test: Erythrocyte blocking assay: inhibition of DBL-1-GST binding to RBC by GAGs; type: cell-based, Plasmodium falciparum; conditions: GAG titrated from 20 to 8 mg/ml
Description: Ten-well immunofluorescence glass-slides were precoated with 10% poly-L-lysine in PBS for 30 min. Monolayers of RBC were made by addition of 20 μl of 0.5% 3× washed bloodgroup O Rh^+RBC in PBS to each well. Twenty μl DBL-1-GST, ATS-GST or GST alone (80 μg/ml) in PBS was added to the wells for 30 min. The DBL-1-GST fusion protein was in subsequent experiments incubated in the presence of heparin, heparan sulfate or chondroitin sulfate (titrated from 20 to 8 mg/ml) to study the inhibitory activity of each GAG. Slides were washed 3 times with PBS and the fusion protein-binding was detected with the biotin-labelled anti-GST mAb and an EXTRAVIDIN (a modified avidin) FITC conjugate (Sigma). The fluorescence was assessed in a Nikon Optiphot-2 UV microscope, using a ×10 ocular and an oil lens with a magnification of ×100.

[10] = tested on: TM180 rosettes; test: Heparinase treatment, rosettes of strain TM180; type: cell-based, Plasmodium falciparum; conditions: not shown
[11] = tested on: R29 rosettes; test: Heparinase treatment, rosettes of strain R29; type: cell-based, Plasmodium falciparum; conditions: not shown
[12] = tested on: FCR3S1.2 infected pRBC rosettes; type: cell-based, Plasmodium falciparum; conditions: competitive rosette-reformation, enzyme 60–90 min
[13] = tested on: rosettes of fresh P. falciparum-isolates; conditions: cited from earlier work
[14] = tested on: TM 284 rosettes; type: cell-based, Plasmodium falciparum
[15] = tested on: FCR3S1 rosettes; type: cell-based, Plasmodium falciparum

Row | Compound | inhibition of DBL-1-GST binding to heparin-sepharose [1] | sensitivity of FCR3S1 rosettes to the compound [2] | sensitivity of TM 284 rosettes to the compound [3] | relative effectiveness as rosette disrupter on the whole collection of wild isolates [4] | decrease of rosette binding capacity of treated uninfected RBC [5] | change in rosetting after treatment of whole cultures, FCR3S1 [6] | change in rosetting after treatment of whole cultures, TM 284 [7] | disruptive activity of GAGs on FCR3S1.2 rosettes [8] | inhibition of DBL-1-GST binding to erythrocytes [9] | also measured
1 | chondroitin sulfate | but not with chondroitin sulfate | little or no effect | relatively higher sensitivity | the least effective | – | – | – | – | – | –
2 | [O-][I+3]([O-])([O-])O [Sodium periodate] | – | – | – | – | 4 fold | intermediate effect | intermediate effect | – | – | –
3 | heparan sulfate | dose-dependently be competed out | high sensitivity | less sensitive | intermediate position | – | – | – | sensitive | could be inhibited with small amounts | –
4 | Heparinase III | – | – | – | – | 4–5 fold | drastic reduction of the rosetting capacity | somewhat lower decrease | – | – | effect of heparinase treatment on rosettes, TM180 [10]: disrupted the rosettes; effect of heparinase treatment on rosettes, R29 [11]: not affected; effect of enzyme treatment of the uninfected erythrocyte on rosette binding [12]: treatment blocked the binding; effect of heparinase treatment on rosettes, TM284 ([7]; not shown): disrupted the rosettes
5 | heparin | dose-dependently be competed out | high sensitivity | less sensitive | intermediate position | – | – | – | sensitive | could be inhibited with small amounts | efficiency of heparin chain relative to disaccharide I-S, weight basis ([2]; heparin 1 mg/ml vs I-S 30 mM): around 20 fold; efficiency of heparin chain relative to disaccharide I-S, molar basis ([2]; heparin ≃70 μM vs I-S 30 mM): around 500 fold; fresh isolates whose rosettes were disrupted ([13]; 54 fresh isolates): 50%; number of fresh isolates whose rosettes were disrupted ([13]; out of 54 fresh isolates): 27; rosettes disrupted ([3]; at 1 mg/ml (not shown)): 80%
6 | Chondroitinase ABC | – | – | – | – | – | had only effect on the rosetting of the TM284 strain | had only effect on the rosetting of the TM284 strain | – | – | decrease of binding capacity of treated uninfected RBC, TM 284 [14]: two fold decrease; binding capacity of treated uninfected RBC, FCR3S1 [15]: unaffected
